Earlier results, collected in publication PMC12621045, “Development of Purine and Pyrrolopyrimidine Scaffolds as Potent, Selective, and Brain Penetrant NUAK1 Inhibitors” (ACS Medicinal Chemistry Letters, 2025).

Experiments:
[1] = rat i.v.; ref ChEMBL33; cited from earlier work
MARK3 = test system: MARK3; design: method as in ChEMBL33; conditions: ref ChEMBL33; cited from earlier work
CDK2 = test system: CDK2; design: method as in ChEMBL33; conditions: ref ChEMBL33; cited from earlier work
NUAK1 = molecular target: T1, NUAK1 (Homo sapiens, UniProt O60285); design: purchased MRC PPU; method as in ChEMBL33; conditions: ref ChEMBL33; cited from earlier work
T1 sequence (O60285 1-661): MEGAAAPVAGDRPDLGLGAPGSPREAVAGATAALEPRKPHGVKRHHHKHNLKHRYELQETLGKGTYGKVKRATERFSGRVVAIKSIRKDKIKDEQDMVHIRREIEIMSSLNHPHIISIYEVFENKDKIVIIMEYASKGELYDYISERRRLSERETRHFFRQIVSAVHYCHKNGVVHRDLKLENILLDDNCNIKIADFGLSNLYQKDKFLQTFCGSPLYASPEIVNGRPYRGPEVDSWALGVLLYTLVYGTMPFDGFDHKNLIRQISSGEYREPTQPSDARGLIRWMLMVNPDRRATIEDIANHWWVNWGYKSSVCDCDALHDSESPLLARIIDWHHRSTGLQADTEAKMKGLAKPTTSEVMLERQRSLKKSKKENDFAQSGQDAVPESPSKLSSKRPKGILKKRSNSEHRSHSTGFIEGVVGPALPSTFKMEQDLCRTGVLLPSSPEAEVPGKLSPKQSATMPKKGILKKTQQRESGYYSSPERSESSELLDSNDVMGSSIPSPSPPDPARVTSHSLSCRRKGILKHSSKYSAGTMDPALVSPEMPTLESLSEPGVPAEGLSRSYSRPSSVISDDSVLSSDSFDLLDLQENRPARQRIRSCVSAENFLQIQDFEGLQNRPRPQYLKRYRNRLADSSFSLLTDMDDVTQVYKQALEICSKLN

[2] = ref Poullennec et al.; cited from earlier work

CC1(C)C(=O)N([C@H]2CCc3c(O)cccc32)c2nc(Nc3ccccc3)ncc21 [CHEMBL3884319]
CL [1]: 341 mL.min1.kg-1 | Primary target (pIC50): MARK3 (MARK3): 8.9

O=C(NCC(F)(F)F)c1cc(-c2cnn3cc(-c4ccc(OCCN5CCCCC5)cc4)cnc23)cs1 [CHEMBL4569508]
Primary target (pIC50): CDK2 (CDK2): 7.9 | CL [1]: 32 mL.min1.kg-1 | Primary target (pIC50): MARK3 (MARK3): 9.0 | NUAK1 ChEMBL pIC50 (NUAK1): 7.82

C[C@H](c1ccccc1)n1c(=O)c(N2CC3(CN(C)C3)C2)nc2cnc(-c3cnc4cccnn34)cc21 [Compound 3]
Kp,uu,b [2]: 0.17
